Results taken from patent US20230219962A1, “PYRAZOLO[4,3-d]PYRIMIDINE DERIVATIVES AND METHODS OF USE THEREOF FOR THE TREATMENT OF CELLULAR PROLIFERATIVE DISORDERS” (Merck Sharp & Dohme LLC, priority 2020, published 2023).

Tests used:
hTLR7 = target: T1, hTLR7 (Homo sapiens, UniProt Q9NYK1); test: Human TLR7 Reporter Assay; assay type: cell-based; conditions: HEK-Blue hTLR7 cells, 16 hours, normalized to CL097 (6 μM) and DMSO
T1 construct: host or cells: HEK-Blue hTLR7 cells (HEK293-derived, own knowledge)
T1 sequence (Q9NYK1 27-1049): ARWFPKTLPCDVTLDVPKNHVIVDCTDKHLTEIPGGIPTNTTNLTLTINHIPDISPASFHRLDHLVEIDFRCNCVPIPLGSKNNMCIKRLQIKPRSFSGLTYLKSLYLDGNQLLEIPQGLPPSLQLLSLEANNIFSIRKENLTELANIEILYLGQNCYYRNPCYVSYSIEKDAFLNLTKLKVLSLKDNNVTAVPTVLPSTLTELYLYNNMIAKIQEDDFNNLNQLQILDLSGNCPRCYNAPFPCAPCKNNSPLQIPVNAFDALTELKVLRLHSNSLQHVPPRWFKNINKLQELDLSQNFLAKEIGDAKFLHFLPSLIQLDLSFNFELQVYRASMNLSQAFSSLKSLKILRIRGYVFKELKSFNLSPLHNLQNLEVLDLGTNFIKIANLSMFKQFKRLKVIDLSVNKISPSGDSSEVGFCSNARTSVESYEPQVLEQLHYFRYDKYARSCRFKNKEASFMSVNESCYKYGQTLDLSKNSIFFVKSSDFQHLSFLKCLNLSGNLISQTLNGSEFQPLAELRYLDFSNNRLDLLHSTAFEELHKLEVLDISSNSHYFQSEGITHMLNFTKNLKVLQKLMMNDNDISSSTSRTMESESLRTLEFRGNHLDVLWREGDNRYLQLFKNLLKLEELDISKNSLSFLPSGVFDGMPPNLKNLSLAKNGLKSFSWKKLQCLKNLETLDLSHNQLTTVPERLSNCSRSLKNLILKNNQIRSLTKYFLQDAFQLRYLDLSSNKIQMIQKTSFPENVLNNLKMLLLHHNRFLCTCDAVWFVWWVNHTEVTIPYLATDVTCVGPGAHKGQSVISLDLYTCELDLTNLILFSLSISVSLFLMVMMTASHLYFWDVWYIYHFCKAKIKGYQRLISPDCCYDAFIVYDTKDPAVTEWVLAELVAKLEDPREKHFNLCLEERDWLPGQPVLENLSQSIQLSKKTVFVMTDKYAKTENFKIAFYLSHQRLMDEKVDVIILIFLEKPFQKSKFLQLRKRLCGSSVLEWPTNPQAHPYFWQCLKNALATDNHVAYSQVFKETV
Procedure: (§1) HEK-Blue™ hTLR7 cells (Invivogen, San Diego, Calif.) were maintained at 37° C./5% CO2/90% relative humidity in Dulbecco's Modified Eagle's Medium with 10% fetal bovine serum, 100 units/mL penicillin, 100 μg/mL streptomycin, 100 μg/mL normocin, 10 μg/mL blasticidin, and 100 μg/mL zeocin. HEK-Blue™ hTLR7 cells were maintained at 10-90% confluence and used before passage 20. For this assay, test compounds were dissolved in DMSO, and 10-point serial 3-fold dilution series in DMSO were prepared in Echo Qualified 384-well Polypropylene Microplates (Labcyte, San Jose, Calif.). Assay plates (384-well flat, clear bottom, black polystyrene TC-treated microtiter plates; Corning, Corning, N.Y.) were prepared by dispensing 150 nL of test compounds, high control (CL097; Invivogen, San Diego, Calif.), and low control (DMSO) by ECHO acoustic dispenser (Labcyte, San Jose Calif.) followed by addition of 5 μL of HEK-Blue™ Detection assay media (Invivogen, San Diego, Calif.). HEK-Blue™ hTLR7 cells in HEK-Blue™ Detection assay media (20,000 cells per well in 45 μL of media) were added to the assay plate and incubated for 16 hours at 37° C./5% CO2/90% relative humidity. For detection, assay plates were removed from the incubator, allowed to cool to ambient temperature, centrifuged at 200×g for 1 minutes, and read with an EnSpire Multimode Plate Reader (Perkin Elmer, Waltham, Mass.) for absorbance at 620 nm. Test compound effects were normalized to the window defined by the controls, CL097 (6 μM), and DMSO. Calculated % effects were fit using a 4-parameter algorithm, and EC50 was reported.

hTLR8 = target: T2, hTLR8 (Homo sapiens, UniProt Q9NR97); test: Human TLR8 Reporter Assay; assay type: cell-based; conditions: HEK-Blue hTLR8 cells, 16 hours, normalized to tl8-506 (1 μM) and DMSO
T2 construct: host or cells: HEK-Blue hTLR8 cells (HEK293-derived, own knowledge)
T2 sequence (Q9NR97 27-1041): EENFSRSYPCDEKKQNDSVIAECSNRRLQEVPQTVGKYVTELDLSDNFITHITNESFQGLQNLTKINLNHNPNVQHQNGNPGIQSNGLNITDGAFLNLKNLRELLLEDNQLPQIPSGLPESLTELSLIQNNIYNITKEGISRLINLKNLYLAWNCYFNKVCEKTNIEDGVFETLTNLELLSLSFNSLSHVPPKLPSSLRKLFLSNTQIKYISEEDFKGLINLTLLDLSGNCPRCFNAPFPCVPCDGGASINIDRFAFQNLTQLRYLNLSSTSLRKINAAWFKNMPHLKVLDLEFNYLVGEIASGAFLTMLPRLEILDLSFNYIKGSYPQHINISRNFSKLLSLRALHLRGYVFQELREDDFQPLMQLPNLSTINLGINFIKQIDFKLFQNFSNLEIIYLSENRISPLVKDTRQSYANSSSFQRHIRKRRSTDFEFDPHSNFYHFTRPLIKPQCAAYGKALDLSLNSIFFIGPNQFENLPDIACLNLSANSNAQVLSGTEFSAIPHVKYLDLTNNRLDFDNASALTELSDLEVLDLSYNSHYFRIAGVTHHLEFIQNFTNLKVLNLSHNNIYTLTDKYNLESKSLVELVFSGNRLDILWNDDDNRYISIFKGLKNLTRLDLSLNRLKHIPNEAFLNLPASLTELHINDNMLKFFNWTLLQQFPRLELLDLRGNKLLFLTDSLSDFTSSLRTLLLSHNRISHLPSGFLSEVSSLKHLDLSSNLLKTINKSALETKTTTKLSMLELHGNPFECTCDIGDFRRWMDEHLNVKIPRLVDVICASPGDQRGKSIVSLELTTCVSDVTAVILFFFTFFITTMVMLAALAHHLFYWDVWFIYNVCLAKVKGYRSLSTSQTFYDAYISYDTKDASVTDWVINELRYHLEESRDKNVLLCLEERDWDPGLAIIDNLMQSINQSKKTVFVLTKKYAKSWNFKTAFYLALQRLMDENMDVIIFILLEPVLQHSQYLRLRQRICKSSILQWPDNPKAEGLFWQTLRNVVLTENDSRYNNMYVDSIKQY
Procedure: as §1, with “hTLR8” for “hTLR7”, “(tl8-506;” for “(CL097;”, “tl8-506 (1” for “CL097 (6”

In the case of `COc1cccc(OC)c1Cn1cc2nc(N)nc(NCCCC(C)C)c2n1` [Compound 54], the EC50 (hTLR7) is reported as 496 nM and the EC50 (hTLR8) is reported as > 29900 nM.

`CCC(C)CNc1nc(N)nc2cn(Cc3c(OC)cccc3OC)nc12` (stereo not shown) [Compound 56] was tested, and the EC50 (hTLR7) was 369 nM and the EC50 (hTLR8) was > 9980 nM.

Molecule `CCCCNc1nc(N)nc2cn(Cc3ccc(N4CCNCC4)cc3OC)nc12` [Compound 58] has an EC50 (hTLR7) of 228 nM and an EC50 (hTLR8) of 345 nM.

`CCCCNc1nc(N)nc2cn(Cc3cc(N4CCNCC4)ccc3OC)nc12` [Compound 59] showed an EC50 (hTLR7) of 964 nM and an EC50 (hTLR8) of 2640 nM.

Molecule `CCCCNc1nc(N)nc2cn(Cc3ccc(CN4CCNCC4)cc3OC)nc12` [Compound 61] has an EC50 (hTLR7) of 344 nM and an EC50 (hTLR8) of 438 nM.

In the case of `CCCCNc1nc(N)nc2cn(Cc3c(OC)cc(CN4CCNCC4)cc3OC)nc12` [Compound 62], the EC50 (hTLR7) is reported as 840 nM and the EC50 (hTLR8) is reported as 1490 nM.

Molecule `CCCCNc1nc(N)nc2cnn(Cc3c(OC)cc(CN4CCNCC4)cc3OC)c12` [Compound 63] has an EC50 (hTLR7) of 50.8 nM and an EC50 (hTLR8) of 2410 nM.

`CCCCNc1nc(N)nc2cn(Cc3c(OC)cc(N4CCNCC4)cc3OC)nc12` [Compound 64] was tested, and the EC50 (hTLR7) was 518 nM and the EC50 (hTLR8) was 348 nM.

Molecule `CCCCNc1nc(N)nc2cn(Cc3c(OC)cc(N)cc3OC)nc12` [Compound 65] has an EC50 (hTLR7) of 119 nM and an EC50 (hTLR8) of 1020 nM.

Work on `CCCCNc1nc(N)nc2cn(Cc3c(OC)cc(CN)cc3OC)nc12` [Compound 66] yielded an EC50 (hTLR7) of 493 nM and an EC50 (hTLR8) of 199 nM.

`CCCCNc1nc(N)nc2cn(Cc3c(OC)cc(CCN)cc3OC)nc12` [Compound 67] was tested, and the EC50 (hTLR7) was 281 nM and the EC50 (hTLR8) was 392 nM.

Molecule `CCCCNc1nc(N)nc2cn(Cc3ccc(N4CCN(C(=O)C5CCC(CN6C(=O)C=CC6=O)CC5)CC4)cc3OC)nc12` (stereo not shown) [Compound 68] has an EC50 (hTLR7) of 190 nM and an EC50 (hTLR8) of 3640 nM.

Work on `CCCCNc1nc(N)nc2cn(Cc3ccc(CN4CCN(C(=O)C5CCC(CN6C(=O)C=CC6=O)CC5)CC4)cc3OC)nc12` (stereo not shown) [Compound 69] yielded an EC50 (hTLR7) of 243 nM and an EC50 (hTLR8) of 1490 nM.

In the case of `CCCCNc1nc(N)nc2cn(Cc3cc(N4CCN(C(=O)C5CCC(CN6C(=O)C=CC6=O)CC5)CC4)ccc3OC)nc12` (stereo not shown) [Compound 70], the EC50 (hTLR7) is reported as > 1110 nM and the EC50 (hTLR8) is reported as 908 nM.

In the case of `CCCCNc1nc(N)nc2cn(Cc3cc(CN4CCN(C(=O)C5CCC(CN6C(=O)C=CC6=O)CC5)CC4)ccc3OC)nc12` (stereo not shown) [Compound 71], the EC50 (hTLR7) is reported as 267 nM and the EC50 (hTLR8) is reported as 3040 nM.

For `CCCCNc1nc(N)nc2cn(Cc3c(OC)cc(CNC(=O)C4CCC(CN5C(=O)C=CC5=O)CC4)cc3OC)nc12` (stereo not shown) [Compound 72], the EC50 (hTLR7) was 597 nM and the EC50 (hTLR8) was > 29900 nM.

For `CCCCNc1nc(N)nc2cn(Cc3c(OC)cc(CN4CCN(C(=O)C5CCC(CN6C(=O)C=CC6=O)CC5)CC4)cc3OC)nc12` (stereo not shown) [Compound 74], the EC50 (hTLR7) was 3330 nM and the EC50 (hTLR8) was > 29900 nM.

Molecule `CCCCNc1nc(N)nc2cn(Cc3c(OC)ccc(CN)c3OC)nc12` [Compound 76] has an EC50 (hTLR7) of 3040 nM and an EC50 (hTLR8) of 719 nM.

Molecule `CCCCNc1nc(N)nc2cn(Cc3c(OC)ccc(N)c3OC)nc12` [Compound 77] has an EC50 (hTLR7) of 490 nM and an EC50 (hTLR8) of 1530 nM.

With `CCCCNc1nc(N)nc2cn(Cc3c(OC)ccc(CN4CCNCC4)c3OC)nc12` [Compound 78] the EC50 (hTLR7) was 2650 nM and the EC50 (hTLR8) was 2560 nM.

Molecule `CCCCNc1nc(N)nc2cn(Cc3c(OC)ccc(CCN)c3OC)nc12` [Compound 79] has an EC50 (hTLR7) of 4450 nM and an EC50 (hTLR8) of 1810 nM.

`CCCCNc1nc(N)nc2cn(Cc3c(OC)cc(CN4CCN(C(=O)C5CCC(CN6C(=O)CC(SC[C@H](N)C(=O)O)C6=O)CC5)CC4)cc3OC)nc12` (stereo partly shown) [Compound 89] was tested, and the EC50 (hTLR7) was 2620 nM and the EC50 (hTLR8) was 24600 nM.

With `CCCCNc1nc(N)nc2cn(Cc3c(OC)ccc(CN4CCN(C(=O)C5CCC(CN6C(=O)CC(SC[C@H](N)C(=O)O)C6=O)CC5)CC4)c3OC)nc12` (stereo partly shown) [Compound 90] the EC50 (hTLR7) was 2210 nM and the EC50 (hTLR8) was 15100 nM.

`CCCC(C)Nc1nc(N)nc2cn(Cc3c(OC)cccc3OC)nc12` (stereo not shown) [Compound 91] gave an EC50 (hTLR7) of 35.8 nM and an EC50 (hTLR8) of 291 nM.

`CCCCNc1nc(N)nc2cn(Cc3c(OC)cc(CNC(=O)C4CCC(CN5C(=O)CC(SC[C@H](N)C(=O)O)C5=O)CC4)cc3OC)nc12` (stereo partly shown) [Compound 92] was tested, and the EC50 (hTLR7) was 2260 nM and the EC50 (hTLR8) was 11600 nM.

In the case of `CCCCNc1nc(N)nc2cn(Cc3ccncc3OC)nc12` [Compound 93], the EC50 (hTLR7) is reported as 120 nM and the EC50 (hTLR8) is reported as 611 nM.

`CCCCNc1nc(N)nc2cn(Cc3ncc(CN4CCNCC4)cc3OC)nc12` [Compound 94] showed an EC50 (hTLR7) of 2040 nM and an EC50 (hTLR8) of 4960 nM.

For `CCCCNc1nc(N)nc2cn(Cc3c(OC)ccc(CN4C(=O)C=CC4=O)c3OC)nc12` [Compound 95], the EC50 (hTLR7) was 3350 nM and the EC50 (hTLR8) was 4330 nM.

Molecule `CCCCNc1nc(N)nc2cn(Cc3c(OC)cc(CNC(=O)CCN4C(=O)C=CC4=O)cc3OC)nc12` [Compound 96] has an EC50 (hTLR7) of 1970 nM and an EC50 (hTLR8) of 7840 nM.
